9 molecules from patent publication US11597703B2, “Caspase inhibitors and methods of use thereof” (Histogen Inc., priority 2019, dated 2023) can be followed below.

One experiment relates to Jurkat cells. The experiment can be described thus: Prevention of Fas-induced apoptosis in Jurkat cells (WST-8). It counts as cell-based. To be noted: Homo sapiens, 10 micromolar, read-out: % Prevention of Fas - induced Jurkat cell apoptosis at 10 micromolar. As to the method: Compounds of the present invention were evaluated in Jurkat cells, a human T-lymphocyte cell line, to evaluate compounds ability to inhibit apoptotic cell death. Jurkat cells, Clone E6-1 (ATCC TIB-152) were grown in culture maintain a cell density between 0.5-2 million cells/mL. Cells were tested for viability and countion with typan blue stain before use. Test compounds were addedd to 96 well plates and Jurkat cells were added at a concentration of approximately 100,000 cells per well and mixed thoroughly by action of pipetting. Plated cells were incubated for 1 hour at 37 degrees C. under an atmosphere of 5% CO2. Anti-Fas antibody was added and mixed by pipet action. Plates were incubated for 20 hours at 37 degrees C. under an atmosphere of 5% CO2. 10 microliters of thawed WST-8 solution was added to each well and incubated for 4 hours. Absorbance was measured at 450 nm and control reading at […] using a SpectraMax ID5 plate reader. Apoptotic cell death is executed by caspases 3, 7 and 6. Compounds that lack activity against these caspases will not prevent the death of Jurkat cells and is a functional test of selectivity for inflammatory over apoptotic caspases.
IC50 values to protect against Fas induced apoptosis and improve survival of Jurkat cells were determined from dose response studies.

For another experiment, the target named is T1, Caspase 6 (Homo sapiens, UniProt P55212).
T1 construct: purchased Enzo Biosciences
T1 sequence (P55212 24-179 limits assumed): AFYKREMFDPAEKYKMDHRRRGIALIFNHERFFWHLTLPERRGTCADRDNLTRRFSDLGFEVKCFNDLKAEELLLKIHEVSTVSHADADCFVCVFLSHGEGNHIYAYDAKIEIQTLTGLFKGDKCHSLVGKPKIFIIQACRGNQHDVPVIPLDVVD
T1 sequence (P55212 194-293 limits assumed): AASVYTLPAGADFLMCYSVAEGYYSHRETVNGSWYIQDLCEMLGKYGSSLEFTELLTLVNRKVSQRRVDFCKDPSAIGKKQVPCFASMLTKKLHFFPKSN
The experiment can be described thus: Caspase 6 enzymatic inhibition assay, IC50. The class given is biochemical. Conditions: read-out: Caspase 6 enzyme inhibition IC50. The method in brief:
(§1)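 Following manufacturer-specified conditions, enzymatic activity of purchased human caspase-3, -6 and -7 was measured with compound present to obtain IC50s.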

The next experiment has as its system IL-1β. The experiment can be described thus: Inhibition of LPS-stimulated IL-1β in THP-1 cells (ELISA). The class given is cell-based, human. Conditions: Homo sapiens, 10 micromolar, read-out: Percent Inhibition of IL1-β. As to the method: Compounds in the present invention were tested in THP-1 cells, a human monocyte cell line, to assess the inhibition of the inflammatory cytokine IL-1β. THP-1 cells (ATCC TIB-202) were grown in culture and seeded in 96 well plates at a concentration of 200,000 cells per well with a total volume of 150 μL. Plated cells were incubated overnight at 37 degrees C. under an atmosphere of 5% CO2. Media was removed from cells which were washed with PBS. Test compounds were diluted in DMSO stock solution and serially diluted appropriately for initial screening and IC50 determinations. LPS in serum free media (140 μL of […]) was added to each well to stimulate IL-1β production. IL-1β was measured by ELISA assay kit (R&D Systems) per the manufacturers instructions.
IC50 values for the inhibition of IL-1 in THP 1 cells were determined from dose response studies.
For orientation: In an ELISA, binding on a coated surface is turned into a signal by an enzyme label.

The next experiment concerns the target T2, Caspase-1 (Homo sapiens, UniProt P29466).
T2 construct: purchased Enzo Biosciences
T2 sequence (P29466 120-297 limits assumed): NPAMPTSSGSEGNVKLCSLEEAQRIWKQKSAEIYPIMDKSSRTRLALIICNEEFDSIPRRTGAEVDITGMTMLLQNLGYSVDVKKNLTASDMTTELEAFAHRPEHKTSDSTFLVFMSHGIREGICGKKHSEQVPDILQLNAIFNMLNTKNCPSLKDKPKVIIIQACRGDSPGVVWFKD
T2 sequence (P29466 317-404 limits assumed): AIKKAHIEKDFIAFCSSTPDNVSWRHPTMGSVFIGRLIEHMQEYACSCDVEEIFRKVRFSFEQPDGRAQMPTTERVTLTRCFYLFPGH
The experiment can be described thus: Caspase-1 enzyme inhibition assay (Ac-YVAD-pNA substrate), IC50. The class given is biochemical. The method in brief: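 Buffer was 50 mM HEPES pH 7.4, 100 mM NaCl, 0.1% CHAPS, 1 mM EDTA, 10% glycerol and 10 mM DTT. Caspase-1 was reacted with 200 μM Ac-YVAD-pNA (final). Release of p-nitroaniline was followed continuously at 405 nm, and rates were taken from the linear slope (ε 10,500 M-1 cm-1).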

Another experiment has as its target T3, Caspase-3 (Homo sapiens, UniProt P42574).
T3 construct: purchased Enzo Biosciences
T3 sequence (P42574 29-175 limits assumed): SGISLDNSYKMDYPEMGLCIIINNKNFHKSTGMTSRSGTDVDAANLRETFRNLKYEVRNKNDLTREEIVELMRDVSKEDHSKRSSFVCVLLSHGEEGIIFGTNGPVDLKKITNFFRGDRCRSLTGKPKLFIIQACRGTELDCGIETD
T3 sequence (P42574 176-277 limits assumed): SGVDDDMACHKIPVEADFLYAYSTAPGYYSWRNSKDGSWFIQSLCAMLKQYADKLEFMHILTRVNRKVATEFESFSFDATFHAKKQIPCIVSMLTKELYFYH
The experiment is described as follows: Caspase-3 enzymatic inhibition assay, IC50. It counts as biochemical. Conditions: read-out: Caspase 3 enzyme inhibition IC50. The method in brief:
as §1

Another experiment deals with T4, Caspase 7 (Homo sapiens, UniProt P55210).
T4 construct: purchased Enzo Biosciences
T4 sequence (P55210 24-198 limits assumed): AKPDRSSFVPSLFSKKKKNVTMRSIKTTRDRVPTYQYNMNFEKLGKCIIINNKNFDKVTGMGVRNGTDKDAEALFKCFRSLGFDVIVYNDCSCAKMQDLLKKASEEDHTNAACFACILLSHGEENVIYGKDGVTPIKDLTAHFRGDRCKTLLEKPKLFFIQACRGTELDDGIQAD
T4 sequence (P55210 207-303 limits assumed): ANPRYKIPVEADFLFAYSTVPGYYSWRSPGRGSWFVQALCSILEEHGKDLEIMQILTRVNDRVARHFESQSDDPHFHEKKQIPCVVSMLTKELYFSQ
The experiment is described as follows: Caspase 7 enzymatic inhibition assay, IC50. The class given is biochemical. Conditions: read-out: Caspase 7 enzyme inhibition IC50. The method in brief: as §1

The term IC50 denotes the concentration that inhibits the measured activity by half.

For `CC(C)(NC(=O)C(=O)Nc1c(F)cccc1F)C(=O)N[C@@H](CCC(=O)O)C(=O)COc1c(F)c(F)cc(F)c1F` [Example 12, (S)-4-(2-(2-((2,6-Difluorophenyl)amino)-2-oxoacetamido)-2-methylpropanamido)-5-oxo-6-(2,3,5,6-tetrafluorophenoxy)hexanoic acid], the inhibition at 10 µM was not above 10% with Jurkat cells and more than 90% in the experiment with IL-1β. Also, the 50% inhibitory concentration (IC50) on Caspase 6 was not below 1000 nM; at Caspase-1, not above 10 nM; on Caspase-3, not below 1000 nM; at Caspase 7, not below 1000 nM.

As for `C[C@H](NC(=O)C(=O)Nc1c(F)cccc1F)C(=O)N[C@@H](CCCC(=O)O)C(=O)COc1c(F)c(F)cc(F)c1F` [Example 13, (S)-5-((S)-2-(2-((2,6-Difluorophenyl)amino)-2-oxoacetamido)propanamido)-6-oxo-7-(2,3,5,6-tetrafluorophenoxy)heptanoic acid], the inhibition at 10 µM in the experiment on Jurkat cells is not above 10%; with IL-1β, 50 to 90%. The concentration for half-maximal inhibition (IC50) on Caspase 6 was not below 1000 nM; on Caspase-1, 10 to 100 nM; on Caspase-3, not below 1000 nM; at Caspase 7, not below 1000 nM.

Regarding `O=C(O)CC[C@H](NC(=O)C1(NC(=O)C(=O)Nc2c(F)cccc2F)CCCC1)C(=O)COc1c(F)c(F)cc(F)c1F` [Example 14, (S)-4-(1-(2-((2,6-Difluorophenyl)amino)-2-oxoacetamido)cyclopentane-1-carboxamido)-5-oxo-6-(2,3,5,6-tetrafluorophenoxy)hexanoic acid], the figures for the inhibition at 10 µM in the experiment with Jurkat cells and in the experiment with IL-1β were not above 10% and more than 90%, respectively. Further, the half-maximal inhibitory concentration (IC50) is 100 to 1000 nM on Caspase 6, not above 10 nM at Caspase-1, 100 to 1000 nM on Caspase-3 and 100 to 1000 nM on Caspase 7.

For the molecule `C[C@H](NC(=O)C(=O)Nc1c(F)cccc1F)C(=O)N[C@@H](CCC(=O)O)C(=O)COc1ccnc(C(F)(F)F)n1` [Example 15, (S)-4-((S)-2-(2-((2,6-Difluorophenyl)amino)-2-oxoacetamido)propanamido)-5-oxo-6-((2-(trifluoromethyl)pyrimidin-4-yl)oxy)hexanoic acid], the figures for the inhibition at 10 µM with Jurkat cells and in the experiment on IL-1β were not above 10% and more than 90%, respectively. Besides, the IC50 at Caspase 6 is not below 1000 nM; on Caspase-1 it was not above 10 nM; on Caspase-3 it was not below 1000 nM; on Caspase 7 it was not below 1000 nM.

As to `O=C(O)CC[C@H](NC(=O)Cn1ccc2ccc(Cl)cc2c1=O)C(=O)COc1c(F)c(F)cc(F)c1F` [Example 16, (S)-4-(2-(7-Chloro-1-oxoisoquinolin-2(1H)-yl)acetamido)-5-oxo-6-(2,3,5,6-tetrafluorophenoxy)hexanoic acid], the inhibition at 10 µM in the experiment on Jurkat cells was not above 10%; in the experiment with IL-1β, more than 90%. In addition, the IC50 on Caspase 6 is not below 1000 nM; against Caspase-1 it was not above 10 nM; at Caspase-3, not below 1000 nM; at Caspase 7, not below 1000 nM.

For `C[C@H](NC(=O)C(=O)Nc1ccc(F)cc1)C(=O)N[C@@H](CCC(=O)O)C(=O)COc1c(F)c(F)cc(F)c1F` [Example 17, (S)-4-((S)-2-(2-((4-fluorophenyl)amino)-2-oxoacetamido)propanamido)-5-oxo-6-(2,3,5,6-tetrafluorophenoxy)hexanoic acid], the inhibition at 10 µM in the experiment on Jurkat cells is not above 10%; in the experiment on IL-1β, more than 90%. The IC50 on Caspase 6 is not below 1000 nM; on Caspase-1, not above 10 nM; at Caspase-3, not below 1000 nM; on Caspase 7, not below 1000 nM.

Take `C[C@H](NC(=O)C(=O)Nc1cccc(F)c1)C(=O)N[C@@H](CCC(=O)O)C(=O)COc1c(F)c(F)cc(F)c1F` [Example 18, (S)-4-((S)-2-(2-((3fluorophenyl)amino)-2-oxoacetamido)propanamido)-5-oxo-6-(2,3,5,6-tetrafluorophenoxy)hexanoic acid]: the inhibition at 10 µM in the experiment on Jurkat cells was not above 10%; in the experiment on IL-1β it was more than 90%. For the same molecule, the IC50 at Caspase 6 is not below 1000 nM; at Caspase-1 it was not above 10 nM; on Caspase-3, not below 1000 nM; at Caspase 7 it was not below 1000 nM.

In the case of `Cc1ccc(NC(=O)C(=O)N[C@@H](C)C(=O)N[C@@H](CCC(=O)O)C(=O)COc2c(F)c(F)cc(F)c2F)cc1` [Example 19, (S)-4-((S)-2-(2-((4-methylphenyl)amino)-2-oxoacetamido)propanamido)-5-oxo-6-(2,3,5,6-tetrafluorophenoxy)hexanoic acid], the values for the inhibition at 10 µM in the experiment on Jurkat cells and in the experiment with IL-1β were not above 10% and more than 90%, respectively. The half-maximal inhibitory concentration (IC50) on Caspase 6 is not below 1000 nM; against Caspase-1 it was not above 10 nM; at Caspase-3 it was not below 1000 nM; on Caspase 7, not below 1000 nM.

`Cc1cccc(NC(=O)C(=O)N[C@@H](C)C(=O)N[C@@H](CCC(=O)O)C(=O)COc2c(F)c(F)cc(F)c2F)c1` [Example 20, (S)-4-((S)-2-(2-((3-methylphenyl)amino)-2-oxoacetamido)propanamido)-5-oxo-6-(2,3,5,6-tetrafluorophenoxy)hexanoic acid]: the inhibition at 10 µM was not above 10% in the experiment on Jurkat cells and more than 90% in the experiment on IL-1β. In addition, the half-inhibitory concentration (IC50) at Caspase 6 was not below 1000 nM; against Caspase-1, not above 10 nM; at Caspase-3, not below 1000 nM; at Caspase 7 it was not below 1000 nM.
